Reference: ChEMBL document CHEMBL1127663, “High-affinity and potent, water-soluble 5-amino-1,4-benzodiazepine CCKB/gastrin receptor antagonists containing a cationic solubilizing group” (J Med Chem, 1994)

Key:
[1] = target: T1, Cholecystokinin receptor type A (Rattus norvegicus, UniProt P30551); assay: Binding activity against Cholecystokinin type A receptor from rat pancreas using [125]BH CCK-8s as radioligand.
T1 sequence (P30551 whole entry): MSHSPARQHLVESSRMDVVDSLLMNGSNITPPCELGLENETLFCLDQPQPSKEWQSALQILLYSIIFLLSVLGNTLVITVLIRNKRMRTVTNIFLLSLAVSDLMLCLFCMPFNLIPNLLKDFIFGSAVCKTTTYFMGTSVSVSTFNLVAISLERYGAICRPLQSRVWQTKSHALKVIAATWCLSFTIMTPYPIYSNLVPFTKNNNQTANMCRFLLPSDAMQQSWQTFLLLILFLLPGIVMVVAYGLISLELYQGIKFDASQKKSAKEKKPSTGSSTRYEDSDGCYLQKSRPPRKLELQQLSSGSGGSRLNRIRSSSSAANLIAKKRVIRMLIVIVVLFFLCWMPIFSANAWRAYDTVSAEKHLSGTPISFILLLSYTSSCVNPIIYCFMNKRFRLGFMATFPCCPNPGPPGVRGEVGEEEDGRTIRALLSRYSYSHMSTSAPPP

[2] = Binding activity against Cholecystokinin type B receptor from guinea pig cortex using [125]BH CCK-8s as radioligand.

Row | SMILES | IC50 [1] | IC50 [2]
1 | Cc1cccc(NC(=O)NC2N=C(N3CCCCC3)c3ccccc3N(C)C2=O)c1 (centres undefined) | 17 nM | 
2 | Cc1cccc(NC(=O)N[C@@H]2N=C(C3CCCCC3)c3ccccc3N(C)C2=O)c1 |  | 0.28 nM
3 | Cc1cccc(NC(=O)NC2N=C(N3CC4CCC(CC4)C3)c3ccccc3N(C)C2=O)c1 (centres undefined) | 19.9 nM | 
4 | Cc1cccc(NC(=O)N[C@H]2N=C(N3CC4CCC(CC4)C3)c3ccccc3N(C)C2=O)c1 | 6.5 nM | 
